One assay deals with T1, IKKε (Homo sapiens, UniProt Q14164).
T1 construct: His-tag; made in house; host or cells: Sf9 insect cells
T1 sequence (Q14164 1-716): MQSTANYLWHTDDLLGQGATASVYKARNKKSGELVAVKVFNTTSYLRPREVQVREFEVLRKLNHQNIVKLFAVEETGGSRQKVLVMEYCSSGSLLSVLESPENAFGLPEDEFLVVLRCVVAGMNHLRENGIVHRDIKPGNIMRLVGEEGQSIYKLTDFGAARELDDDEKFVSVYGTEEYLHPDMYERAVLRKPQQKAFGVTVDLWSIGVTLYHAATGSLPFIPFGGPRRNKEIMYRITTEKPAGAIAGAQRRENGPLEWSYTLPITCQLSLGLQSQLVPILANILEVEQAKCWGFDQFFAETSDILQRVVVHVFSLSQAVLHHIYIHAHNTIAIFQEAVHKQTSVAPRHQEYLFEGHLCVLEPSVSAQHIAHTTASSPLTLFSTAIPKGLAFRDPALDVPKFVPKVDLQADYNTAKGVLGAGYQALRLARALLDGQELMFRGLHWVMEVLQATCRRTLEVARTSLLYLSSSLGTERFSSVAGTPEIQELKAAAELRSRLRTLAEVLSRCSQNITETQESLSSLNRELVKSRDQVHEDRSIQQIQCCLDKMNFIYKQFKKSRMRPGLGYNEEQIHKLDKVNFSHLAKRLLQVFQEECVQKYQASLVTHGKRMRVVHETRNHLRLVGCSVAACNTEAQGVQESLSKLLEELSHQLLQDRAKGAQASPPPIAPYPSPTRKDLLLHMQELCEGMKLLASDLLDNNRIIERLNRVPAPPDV
The assay can be described thus: In-vitro IKKε kinase assay ([γ33]ATP filter-plate). The format is biochemical. The following applies: text bins; read-out: IC50 for inhibition of the kinase activity of IKKε. The gist of the method:
(§1)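 Phosphorylation of casein or myelin basic protein was counted by P-81 filter capture after 30-45 min reactions stopped with phosphoric acid, with counts normalized to DMSO after background subtraction. ATP was twice Km: 60 μM for TBK1 and 32 μM for IKKε, plus [γ33]ATP. Sf9-expressed His-tag enzymes were used at normal/sensitized levels of 0.1/0.02 μg/ml (TBK1) and 0.1/0.015 μg/ml (IKKε).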

A further assay addresses T2, TBK1 (Homo sapiens, UniProt Q9UHD2).
T2 construct: His-tag; made in house; host or cells: Sf9 insect cells
T2 sequence (Q9UHD2 1-729): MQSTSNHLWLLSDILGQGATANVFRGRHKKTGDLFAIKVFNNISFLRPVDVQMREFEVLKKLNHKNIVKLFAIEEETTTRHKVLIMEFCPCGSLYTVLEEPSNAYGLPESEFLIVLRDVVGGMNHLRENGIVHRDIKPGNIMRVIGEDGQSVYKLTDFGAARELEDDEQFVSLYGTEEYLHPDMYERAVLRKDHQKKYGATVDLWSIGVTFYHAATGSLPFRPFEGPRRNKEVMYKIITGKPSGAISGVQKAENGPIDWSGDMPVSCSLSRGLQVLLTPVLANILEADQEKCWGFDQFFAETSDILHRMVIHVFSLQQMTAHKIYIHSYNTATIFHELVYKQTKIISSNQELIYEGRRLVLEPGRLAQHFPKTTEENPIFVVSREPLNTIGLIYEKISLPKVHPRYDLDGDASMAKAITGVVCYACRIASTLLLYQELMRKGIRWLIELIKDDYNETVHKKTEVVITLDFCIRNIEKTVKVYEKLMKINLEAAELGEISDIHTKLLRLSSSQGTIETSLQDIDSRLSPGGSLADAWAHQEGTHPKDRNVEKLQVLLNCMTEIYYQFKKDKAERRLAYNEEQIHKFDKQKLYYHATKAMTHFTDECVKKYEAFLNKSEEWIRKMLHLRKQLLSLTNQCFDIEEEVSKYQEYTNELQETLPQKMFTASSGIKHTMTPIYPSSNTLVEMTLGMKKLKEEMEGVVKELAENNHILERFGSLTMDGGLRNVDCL
Briefly: In-vitro TBK1 kinase assay ([γ33]ATP filter-plate). The format is biochemical. The following applies: text bins; read-out: IC50 for inhibition of the kinase activity of TBK1. In short, it runs like this:
as §1

Data on 24 compounds can be found in patent US20150352108A1, “AMINO-PYRIMIDINE COMPOUNDS AS INHIBITORS OF TBK1 AND/OR IKK EPSILON” (Alzheimer's Institute of America, priority 2009, published 2015).

Molecules are shown by their SMILES.

Broadly, the IC50 is the concentration that gives 50% inhibition. On to `COc1cc(Nc2nccc(-c3ccc(OC4CCNCC4)c(C#N)c3)n2)ccc1N1CCOCC1` [Example 186, 5-(2-{[3-methoxy-4-(morpholin-4-yl)phenyl]amino}pyrimidin-4-yl)-2-(piperidin-4-yloxy)benzonitrile], for which the IC50 at IKKε lay in the range of 0.005 to 0.05 µM; on TBK1, 0.01 to 0.1 µM.

Take `COc1cc(NC(=O)c2cccnc2)cc(Nc2nccc(-c3ccc(OC)c(C#N)c3)n2)c1` [compound 356, N-(3-{[4-(3-Cyano-4-methoxyphenyl)pyrimidin-2-yl]amino}-5-methoxyphenyl) pyridine-3-carboxamide]: the IC50 lay in the range of 0.005 to 0.05 µM at IKKε and 0.01 to 0.1 µM at TBK1.

Take `N#Cc1cc(-c2ccnc(Nc3ccc(CS(=O)(=O)NCCO)cc3)n2)ccc1OCC1CC1` [compound 637, 1-[4-({4-[3-Cyano-4-(cyclopropylmethoxy)phenyl]pyrimidin-2-yl}amino)phenyl]-N-(2-hydroxyethyl) methanesulfonamide]: the 50% inhibitory concentration (IC50) on IKKε was under 0.005 µM; at TBK1, under 0.01 µM.

On to `COc1ccc(-c2ccnc(Nc3ccc(N4CCOCC4)cc3)n2)cc1C#N` [Example 266, 2-Methoxy-5-(2-{[4-(morpholin-4-yl)phenyl]amino}pyrimidin-4-yl)benzonitrile], for which the IC50 on IKKε was 0.005 to 0.05 µM; on TBK1 it was under 0.01 µM.

As for `CN1CCN(c2ccc(Nc3nccc(-c4ccc(OC5CCNC5)c(C#N)c4)n3)cc2)CC1` (stereo not drawn) [Example 90, 5-(2-{[4-(4-methylpiperazin-1-yl)phenyl]amino}pyrimidin-4-yl)-2-(pyrrolidin-3-yloxy)benzonitrile], the concentration for half-maximal inhibition (IC50) at IKKε is 0.005 to 0.05 µM; on TBK1, 0.01 to 0.1 µM.

Take `CC(=O)NCCCOc1ccc(-c2ccnc(Nc3ccc(N4CCOCC4)cc3)n2)cc1C#N` [Example 149, N-{3-[2-cyano-4-(2-{[4-(morpholin-4-yl)phenyl]amino}pyrimidin-4-yl)phenoxy]propyl} acetamide]: the IC50 at IKKε fell in the range of 0.005 to 0.05 µM; at TBK1, 0.01 to 0.1 µM.

In the case of `N#Cc1cc(-c2ccnc(Nc3ccc(N4CCOCC4)cc3)n2)ccc1OC1CCN(C(=O)C2(N)CC2)C1` (stereo not drawn) [Example 189, 2-({1-[(1-aminocyclopropyl)carbonyl]pyrrolidin-3-yl}oxy)-5-(2-{[4-(morpholin-4-yl)phenyl]amino}pyrimidin-4-yl)benzonitrile], the half-inhibitory concentration (IC50) on IKKε fell in the range of 0.05 to 0.5 µM; at TBK1, 0.1 to 0.5 µM.

In the case of `N#Cc1cccc(-c2ccnc(Nc3ccc(N4CCOCC4)cc3)n2)c1` [compound 322, 3-(2-{[4-(Morpholin-4-yl)phenyl]amino}pyrimidin-4-yl)benzonitrile], the values for the IC50 at IKKε and at TBK1 were 0.05 to 0.5 µM and 0.01 to 0.1 µM, respectively.

Turning to `COc1ccc(-c2ccnc(Nc3ccc(CN4CCN(C)CC4)cc3)n2)cc1C#N` [compound 337, 2-Methoxy-5-[2-({4-[(4-methylpiperazin-1-yl)methyl]phenyl}amino)pyrimidin-4-yl]benzonitrile], the IC50 at IKKε is 0.005 to 0.05 µM; on TBK1, 0.01 to 0.1 µM.

With `N#Cc1cc(-c2ccnc(Nc3ccc(N4CCOCC4)cc3)n2)ccc1NS(=O)(=O)CC(F)(F)F` [Example 243, N-[2-cyano-4-(2-{[4-(morpholin-4-yl)phenyl]amino}pyrimidin-4-yl)phenyl]-2,2,2-trifluoroethane-sulfonamide], the IC50 on IKKε is 0.005 to 0.05 µM; at TBK1 it was 0.01 to 0.1 µM.

On to `N#Cc1cc(-c2ccnc(Nc3ccc(N4CCOCC4)cc3)n2)ccc1OC1CCNCC1` [Example 194, 5-(2-{[4-(Morpholin-4-yl)phenyl]amino}pyrimidin-4-yl)-2-(piperidin-4-yloxy)benzonitrile], for which the IC50 at IKKε is 0.005 to 0.05 µM; at TBK1 it was under 0.01 µM.

`COc1ccc(-c2ccnc(Nc3cccc(S(N)(=O)=O)c3)n2)cc1C#N` [compound 346, 3-{[4-(3-Cyano-4-methoxyphenyl)pyrimidin-2-yl]amino} benzenesulfonamide]: the 50% inhibitory concentration (IC50) at IKKε was 0.005 to 0.05 µM; on TBK1 it was 0.01 to 0.1 µM.

Turning to `N#Cc1cc(-c2ccnc(Nc3ccc(N4CCOCC4)cc3)n2)ccc1OCC1CCOCC1` [Example 158, 5-(2-{[4-(morpholin-4-yl)phenyl]amino}pyrimidin-4-yl)-2-(tetrahydro-2H-pyran-4-ylmethoxy) benzonitrile], the IC50 was under 0.005 µM at IKKε and under 0.01 µM on TBK1.

In the case of `CC(C)Nc1ccc(-c2ccnc(Nc3ccc(N4CCOCC4)cc3)n2)cc1C#N` [Example 211, 5-(2-{[4-(Morpholin-4-yl)phenyl]amino}pyrimidin-4-yl)-2-(propan-2-ylamino)benzonitrile], the IC50 at IKKε is under 0.005 µM; on TBK1 it was under 0.01 µM.

`N#Cc1cc(-c2ccnc(Nc3ccc(CS(=O)(=O)NCCO)cc3)n2)ccc1NC(=O)C1CC1` [compound 566, N-(2-Cyano-4-{2-[(4-{[(2-hydroxyethyl)sulfamoyl]methyl}phenyl)amino]pyrimidin-4-yl}phenyl) cyclopropane-carboxamide]: the IC50 at IKKε was under 0.005 µM; at TBK1, under 0.01 µM.

In the case of `C[C@H](O)C(=O)N1CCC(Oc2ccc(-c3ccnc(Nc4ccc(N5CCOCC5)cc4)n3)cc2C#N)CC1` [Example 6, 2-({1-[(2S)-2-Hydroxypropanoyl]piperidin-4-yl}oxy)-5-(2-{[4-(morpholin-4-yl)phenyl]amino}pyrimidin-4-yl)benzonitrile], the IC50 on IKKε is under 0.005 µM; on TBK1 it was under 0.01 µM.

For `COc1ccc(Nc2nccc(-c3cccc(C#N)c3)n2)cc1Cl` [compound 318, 3-{2-[(3-Chloro-4-methoxyphenyl)amino]pyrimidin-4-yl}benzonitrile], the values for the IC50 at IKKε and on TBK1 were 0.005 to 0.05 µM and 0.01 to 0.1 µM, respectively.

Turning to `COc1ccc(-c2ccnc(Nc3cc(CN4CCNC(=O)C4)c(OC)c(OC)c3)n2)cc1C#N` [Example 110, 5-[2-({3,4-Dimethoxy-5-[(3-oxopiperazin-1-yl)methyl]phenyl}amino)pyrimidin-4-yl]-2-methoxybenzonitrile], the IC50 at IKKε is 0.005 to 0.05 µM; at TBK1 it was under 0.01 µM.

On to `COc1cc(Nc2nccc(-c3ccc(OC)c(C#N)c3)n2)cc(C(=O)O)c1` [compound 305], for which the figures for the IC50 on IKKε and on TBK1 were 0.005 to 0.05 µM and 0.01 to 0.1 µM, respectively.

Consider `CC(C)C(=O)Nc1ccc(-c2ccnc(Nc3ccc(CC(=O)NCCCN4CCOCC4)cc3)n2)cc1C#N` [compound 420, N-[2-cyano-4-(2-{[4-(2-{[3-(morpholin-4-yl)propyl]amino}-2-oxoethyl)phenyl]amino}pyrimidin-4-yl)phenyl]-2-methylpropanamide], for which the IC50 on IKKε fell in the range of 0.005 to 0.05 µM; on TBK1, 0.01 to 0.1 µM.

As for `CC(=O)Nc1ccc(-c2ccnc(Nc3ccc(N4CCOCC4)cc3)n2)cc1C#N` [Example 117, N-[2-Cyano-4-(2-{[4-(morpholin-4-yl)phenyl]amino}pyrimidin-4-yl)phenyl]acetamide], the IC50 was 0.005 to 0.05 µM at IKKε and 0.01 to 0.1 µM at TBK1.

For the compound `COc1cc(-c2ccnc(Nc3ccc(CN4CCN(CCO)CC4)cc3)n2)cc(C#N)c1OC1CCOCC1` [compound 443], the IC50 lay in the range of 0.005 to 0.05 µM on IKKε and 0.01 to 0.1 µM on TBK1.

As for `C[C@H](O)C(=O)N1CCC(COc2ccc(-c3ccnc(Nc4ccc(N5CCOCC5)cc4)n3)cc2C#N)CC1` [Example 152, 2-({1-[(2S)-2-hydroxypropanoyl]piperidin-4-yl}methoxy)-5-(2-{[4-(morpholin-4-yl)phenyl]amino}pyrimidin-4-yl)benzonitrile], the IC50 at IKKε lay in the range of 0.005 to 0.05 µM; on TBK1 it was 0.01 to 0.1 µM.

Take `N#Cc1cc(-c2ccnc(Nc3cccc(CC(=O)NCCCN4CCOCC4)c3)n2)ccc1OC1CCOCC1` [compound 407, 2-[3-({4-[3-Cyano-4-(tetrahydro-2H-pyran-4-yloxy)phenyl]pyrimidin-2-yl}amino)phenyl]-N-[3-(morpholin-4-yl)propyl]acetamide]: the results for the half-maximal inhibitory concentration (IC50) at IKKε and on TBK1 were 0.005 to 0.05 µM and under 0.01 µM, respectively.
